Source: patent publication US5506361A, “Imidazobenzoquinones and composition for preventing or treating hypertension or congestive heart failure containing the same” (TheUpjohn Company, priority 1991, dated 1996)

Legend:
[1] = test system: angiotensin II constriction in isolated rabbit thoracic aorta; assay: Antagonism to angiotensin II constriction in an isolated rabbit thoracic aorta; format: cell-based; conditions: test 3); 10^-6 M test compound, 20 min; pA2 = -logKB
Procedure: 3) Antagonism to angiotensin II constriction in an isolated rabbit thoracic aorta
A rectangular strip-like sample of thoracic aorta isolated from an anethetized rabbit was prepared, and this was suspended at 2.0 g of loaded tension in a Magnus tube filled with Krebs-Henseleitoid nutrition solution which was well aerated with 95% O2 -5% CO2, and the constriction tension was measured using an isometric transducer. After the tension of the sample at rest became stable, accumulative administration of angiotensin II was carried out to obtain a concentration-action curve. Thereafter, the sample was washed with the same nutrition solution, and then 10^-6 M test compound was treated for 20 min. to obtain again a concentration-action curve of angiotertsin II. The results were obtained as followed: generated maximum tension at the first accumulative administration of angiotensin II was regarded as 100%, and the 50% effective concentration (ED50) was obtained in the presence or absence of the test compound, and pA2 value was calculated according to the following equations:
pA2 =-logKB KB =C/{(A'/A)-1}
C: concentration of the test compound (M)
A': ED50 in the presence of test compound (M)
A:ED50 in the absence of the test compound (M)

[2] = test system: blood pressure increasing by angiotensin II; assay: Antagonism to blood pressure increasing by angiotensin II in a spine destroyed rat; format: in vivo, Wistar rat; conditions: Rattus norvegicus; test 4); intravenous; 3 μg/kg angiotensin II i.v.; inhibition of blood pressure increase
Excerpt: 4)Antagonism to blood pressure increasing by angiotensin II in a spine destroyed rat
Wistar rat anesthetized with pentobarbital was fixed at dorsal position, and a cannula for measuring blood pressure was inserted into sinister arteria carotis communis, and a cannula for administration of the test compound into dexter external jugular vein and a cannula for administration of angiotensin II into sinister external jugular vein, arebilateral nervous vagus was cut, and artificial respiration was carried out. A thin bar made of metal was stabbed into spinal column through sininster orbita to destroy spine. Blood pressure was recorded on polygraph via pressure transducer from an arterial cannula. After blood pressure was stable for more than 30 min., 3μg/kg of angiotensin II was administered intravenously four times every 15 min., and every 5 min. before the administration of angiotensin II from the second admininstration onward, a solvent, a lower dose of the test compound, and a higher dose of the test compound were admininstered intravenously in this order to observe the blood pressure increasing response by angiotensin II. ED50 values were calculated from the inhibiting rate when the first blood pressure increase by angiotensin II was regarded as 100%.

[3] = target: adrenal cortex angiotensin II receptor; assay: In vitro adrenal cortex angiotensin II receptor binding assay; conditions: test 2); membrane fraction from adrenal cortex of male rat
Procedure: 2) In vitro adrenal cortex angiotensin II receptor binding assay
According to the method by Capponi et at. (1), angiotensin II receptor binding assay was carried out by preparing a membrane fraction from an adrenal cortex of a male rat and using this as a receptor material in the same manner as in the above-described pharmacological test 1) [see Capponi, A. M. and Catt, K., J. Biol. Chem. 254:5120-5127(1979)].

[4] = target: angiotensin II mesenteric artery receptor; assay: In vitro angiotensin II mesenteric artery receptor binding assay; conditions: test 1); 125I-Ang II 0.2 nM, rat mesenteric artery membrane fraction, 22° C., 90 min
Procedure: 1) In vitro angiotensin II mesenteric artery receptor binding assay
According to the method (1) by Gunther et at., a membrane fraction was prepared from mesenteric artery of a male rat, 50 μg protein equivalent thereof and 0.2 nM ^125 I-Ang II as well as various concentrations of test compounds were incubated at 22° C. for 90 min. in 200 μl reaction volume of incubation buffer (50 mM Tris-HCl, 120 mM NaCl, 5 mM MgCl2, 0.25% bovine serum albumin, pH7.2). This was cooled, and the reaction was stopped by addition of ice-cooled phosphate buffer (10 mM phosphate, 140 mM NaCl, pH7.4, hereinafter referred to as PBS), and then the reaction solution was filtered through a glass fiber filter (Whatman CF/B), the filter was washed, dried, and then the radioactivity of captured ^125 I-angiotensin II which bound to the receptor was measured by γ-counter. Non-specific binding mount was obtained from the reaction in the presence of 1 μM of unlabeled angiotensin II. The test compound was tested at the concentration of 0.01 to 1 μM, and those that inhibited more than 50% of total specific binding mount at 1 μM was determined as an active compound, and 50% inhibiting concentration (IC50) was obtained [see Gunther, S., Gimbrone, M. A. and Alexander, R. W., Circ. Res., 17:278-286, 1980].

SMILES	pA2 [1]	ED50 [2] [mg/kg]	IC50 [3] [nM]	IC50 [4] [nM]
CCCCc1nc2c(n1Cc1ccc(-c3ccccc3C(=O)O)cc1)C(=O)c1ccccc1C2=O [Compound No. 1, 1-[(2'-Carboxybiphenyl-4-yl)methyl]-2-n-butyl-1H-naphthimidazol-4,9-dione]	6.64	22.6	540	610
CCCCc1nc2c(n1Cc1ccc(-c3ccccc3C(=O)OC(C)(C)C)cc1)C(=O)c1ccccc1C2=O [Compound No. 2, 1-[(2'-t-Butoxycarbonylbiphenyl-4-yl)methyl]-2-n-butyl-1H-naphthimidazol-4,9-dione]	7.60	–	48	50
